Results from PMC3528345 (Cancer research, 2012).

Molecular target: PARP1 (Gallus gallus, UniProt P26446)
Sequence (P26446 whole entry): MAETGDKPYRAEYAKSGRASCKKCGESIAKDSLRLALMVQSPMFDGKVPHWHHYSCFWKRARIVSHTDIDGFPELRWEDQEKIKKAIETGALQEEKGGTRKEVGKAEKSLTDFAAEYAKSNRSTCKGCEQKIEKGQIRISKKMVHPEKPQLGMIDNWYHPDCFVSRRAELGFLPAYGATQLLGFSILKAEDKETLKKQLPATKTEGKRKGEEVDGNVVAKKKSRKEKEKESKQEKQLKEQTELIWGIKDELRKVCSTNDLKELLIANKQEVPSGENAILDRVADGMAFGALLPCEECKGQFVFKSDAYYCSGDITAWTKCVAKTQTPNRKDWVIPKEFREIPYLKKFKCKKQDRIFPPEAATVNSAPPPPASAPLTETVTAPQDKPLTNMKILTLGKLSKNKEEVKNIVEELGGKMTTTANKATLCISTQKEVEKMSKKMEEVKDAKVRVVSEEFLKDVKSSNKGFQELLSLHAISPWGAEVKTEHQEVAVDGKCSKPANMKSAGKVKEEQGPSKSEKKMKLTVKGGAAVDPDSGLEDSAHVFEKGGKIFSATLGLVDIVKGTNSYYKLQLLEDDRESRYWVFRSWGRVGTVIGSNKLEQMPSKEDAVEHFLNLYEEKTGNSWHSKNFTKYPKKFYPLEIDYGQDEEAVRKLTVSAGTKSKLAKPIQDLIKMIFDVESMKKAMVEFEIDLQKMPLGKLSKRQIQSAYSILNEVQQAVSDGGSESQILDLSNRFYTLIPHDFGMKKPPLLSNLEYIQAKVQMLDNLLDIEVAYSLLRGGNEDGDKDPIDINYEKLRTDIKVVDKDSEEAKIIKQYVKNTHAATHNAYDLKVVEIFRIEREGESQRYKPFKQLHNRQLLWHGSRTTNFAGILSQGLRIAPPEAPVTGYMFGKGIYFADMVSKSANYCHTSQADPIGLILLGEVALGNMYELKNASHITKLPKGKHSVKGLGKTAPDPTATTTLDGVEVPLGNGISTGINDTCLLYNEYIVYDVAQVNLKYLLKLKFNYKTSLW

Compound	IC50 [nM]
C[C@]1(c2nc3c(C(N)=O)cccc3[nH]2)CCCN1 [veliparib]	10.5
NC(=O)c1cccc2cn(-c3ccc([C@@H]4CCCNC4)cc3)nc12 [MK-4827]	50.5
